Experimental data as given in ChEMBL document CHEMBL1139487, “Discovery of corticotropin releasing factor 2 receptor selective sauvagine analogues for treatment of skeletal muscle atrophy” (J Med Chem, 2005).

Experiments:
[1] = molecular target: Corticotropin-releasing factor receptor 2 (Mus musculus) (UniProt Q60748); experiment: In vitro agonistic activity against mouse corticotropin releasing factor 2 receptor; type: functional
Mus musculus [2] = experiment: In vivo percentage inhibition against casting induced tibialis anterior mass loss in mouse at a dosage of 30 ug/kg/day; type: functional
[3] = molecular target: T1, Corticotropin-releasing factor receptor 1 (Mus musculus) (UniProt P35347); experiment: In vitro agonistic activity against mouse corticotropin releasing factor 1 receptor; type: functional
T1 sequence (whole entry): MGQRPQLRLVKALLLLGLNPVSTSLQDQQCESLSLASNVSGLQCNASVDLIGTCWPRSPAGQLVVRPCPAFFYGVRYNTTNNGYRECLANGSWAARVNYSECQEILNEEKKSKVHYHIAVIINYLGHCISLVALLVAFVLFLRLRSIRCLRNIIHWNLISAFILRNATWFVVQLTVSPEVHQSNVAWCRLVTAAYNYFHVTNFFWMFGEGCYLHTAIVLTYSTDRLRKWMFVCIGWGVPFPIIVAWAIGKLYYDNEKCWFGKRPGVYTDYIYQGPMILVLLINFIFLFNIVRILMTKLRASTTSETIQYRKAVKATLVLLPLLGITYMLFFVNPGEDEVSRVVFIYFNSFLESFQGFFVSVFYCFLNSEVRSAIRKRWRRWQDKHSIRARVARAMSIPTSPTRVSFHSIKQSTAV

Mus musculus [4] = species: Mus musculus; experiment: Selectivity ratio of EC50s for mouse corticotropin releasing factor receptors 1 and 2
Mus musculus [5] = experiment: In vivo percentage inhibition against casting induced tibialis anterior mass loss in mouse at a dosage of 10 ug/kg/day; type: functional
Mus musculus [6] = experiment: In vivo percentage inhibition against casting induced tibialis anterior mass loss in mouse at a dosage of 100 ug/kg/day; type: functional
[7] = molecular target: T2, Corticotropin-releasing factor receptor 1 (Mus musculus, UniProt P35347); experiment: In vitro effective concentration for mouse corticotropin releasing factor 1 receptor
T2 sequence (P35347 whole entry): T1 sequence (whole entry)

[8] = molecular target: Corticotropin-releasing factor receptor 2 (Mus musculus, UniProt Q60748); experiment: In vitro effective concentration for mouse corticotropin releasing factor 2 receptor
Sequence of Corticotropin-releasing factor receptor 2 (Q60748 whole entry): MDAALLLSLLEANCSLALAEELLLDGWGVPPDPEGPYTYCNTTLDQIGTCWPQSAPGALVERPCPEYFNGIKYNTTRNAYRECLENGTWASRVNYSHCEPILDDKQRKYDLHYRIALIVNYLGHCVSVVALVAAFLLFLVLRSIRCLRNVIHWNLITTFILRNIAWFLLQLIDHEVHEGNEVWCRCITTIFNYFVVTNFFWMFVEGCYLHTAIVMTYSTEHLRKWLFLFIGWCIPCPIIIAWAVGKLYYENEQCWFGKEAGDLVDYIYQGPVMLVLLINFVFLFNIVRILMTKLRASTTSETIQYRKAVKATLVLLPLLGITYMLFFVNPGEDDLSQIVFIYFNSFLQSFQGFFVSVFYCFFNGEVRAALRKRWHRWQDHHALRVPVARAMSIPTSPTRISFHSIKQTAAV

Sequence of Corticotropin-releasing factor receptor 2 (Mus musculus) (Q60748 whole entry): as above

Compound | Emax [1] | inhibition in vivo at 0.03 mg/kg/day (Mus musculus [2]) | Emax [3] | Selectivity (Mus musculus [4]) | inhibition in vivo at 0.01 mg/kg/day (Mus musculus [5]) | inhibition in vivo at 0.1 mg/kg/day (Mus musculus [6]) | EC50 [7] | EC50 [8]
CC[C@H](C)[C@H](NC(=O)[C@@H](NC(=O)[C@H](CC(=O)O)NC(=O)[C@H](CC(C)C)NC(=O)[C@H](CC(C)C)NC(=O)[C@H](CC(C)C)NC(=O)[C@H](CCCN=C(N)N)NC(=O)[C@H](CC(N)=O)NC(=O)[C@H](CC(N)=O)NC(=O)[C@H](C)NC(=O)[C@H](C)NC(=O)[C@H](CCC(N)=O)NC(=O)[C@H](CCC(N)=O)NC(=O)[C@H](CCCCN)NC(=O)[C@H](CCC(=O)O)NC(=O)[C@H](CCCCN)NC(=O)[C@H](CCC(=O)O)NC(=O)[C@H](CCC(N)=O)NC(=O)[C@H](CCCCN)NC(=O)[C@H](CCC(=O)O)NC(=O)[C@@H](NC(=O)[C@H](CCC(=O)O)NC(=O)[C@@H](NC(=O)[C@H](CCSC)NC(=O)[C@H](CCCCN)NC(=O)[C@H](CCCN=C(N)N)NC(=O)[C@H](CC(C)C)NC(=O)[C@H](CC(C)C)NC(=O)[C@@H](NC(=O)[C@H](CCC(N)=O)NC(=O)[C@@H]1CCCN1C(=O)[C@H](CC(C)C)NC(=O)[C@H](CC(=O)O)NC(=O)[C@@H](NC(=O)[C@H](CO)NC(=O)[C@@H](NC(=O)[C@@H]1CCCN1C(=O)[C@@H]1CCCN1C(=O)CNC(=O)[C@@H]1CCC(=O)N1)[C@@H](C)CC)[C@@H](C)CC)[C@@H](C)CC)[C@@H](C)CC)[C@@H](C)CC)[C@@H](C)O)C(=O)O | 93% | 14% | 93% | 83 | 32% | 73% | – | –
CC[C@H](C)[C@H](NC(=O)[C@@H](NC(=O)[C@H](CC(=O)O)NC(=O)[C@H](CC(C)C)NC(=O)[C@H](CC(C)C)NC(=O)[C@H](CC(C)C)NC(=O)[C@H](CCCN=C(N)N)NC(=O)[C@H](CC(N)=O)NC(=O)[C@H](CC(N)=O)NC(=O)[C@H](C)NC(=O)[C@H](C)NC(=O)[C@H](CCC(N)=O)NC(=O)[C@H](CCC(N)=O)NC(=O)[C@H](CCCCN)NC(=O)[C@H](CCC(=O)O)NC(=O)[C@H](CCCCN)NC(=O)[C@H](CCC(=O)O)NC(=O)[C@H](CCC(N)=O)NC(=O)[C@H](CCCCN)NC(=O)[C@H](CCC(=O)O)NC(=O)[C@@H](NC(=O)[C@H](CCC(=O)O)NC(=O)[C@@H](NC(=O)[C@H](CCSC)NC(=O)[C@H](CCCCN)NC(=O)[C@H](CCCN=C(N)N)NC(=O)[C@H](CC(C)C)NC(=O)[C@H](CC(C)C)NC(=O)[C@H](Cc1ccccc1)NC(=O)[C@H](C)NC(=O)[C@@H]1CCCN1C(=O)[C@H](CC(C)C)NC(=O)[C@H](CC(=O)O)NC(=O)[C@@H](NC(=O)[C@H](CO)NC(=O)[C@@H](NC(=O)[C@@H]1CCCN1C(=O)[C@@H]1CCCN1C(=O)CNC(=O)[C@@H]1CCC(=O)N1)[C@@H](C)CC)[C@@H](C)CC)[C@@H](C)CC)[C@@H](C)CC)[C@@H](C)O)C(=O)O | 100% | – | 95% | 41 | – | – | 384 nM | 9.4 nM
CC[C@H](C)[C@H](NC(=O)[C@@H](NC(=O)[C@H](CC(=O)O)NC(=O)[C@H](CC(C)C)NC(=O)[C@H](CC(C)C)NC(=O)[C@H](CC(C)C)NC(=O)[C@H](CCCN=C(N)N)NC(=O)[C@H](CC(N)=O)NC(=O)[C@H](CC(N)=O)NC(=O)[C@H](C)NC(=O)[C@H](C)NC(=O)[C@H](CCC(N)=O)NC(=O)[C@H](CCC(N)=O)NC(=O)[C@H](CCCCN)NC(=O)[C@H](CCC(=O)O)NC(=O)[C@H](CCCCN)NC(=O)[C@H](CCC(=O)O)NC(=O)[C@H](CCC(N)=O)NC(=O)[C@H](CCCCN)NC(=O)[C@H](CCC(=O)O)NC(=O)[C@@H](NC(=O)[C@H](CCC(=O)O)NC(=O)[C@@H](NC(=O)[C@H](CCSC)NC(=O)[C@H](CCCCN)NC(=O)[C@H](CCCN=C(N)N)NC(=O)[C@H](CC(C)C)NC(=O)[C@H](CC(C)C)NC(=O)[C@H](Cc1c[nH]c2ccccc12)NC(=O)[C@H](Cc1ccc(O)cc1)NC(=O)[C@@H]1CCCN1C(=O)[C@H](CC(C)C)NC(=O)[C@H](CC(=O)O)NC(=O)[C@@H](NC(=O)[C@H](CO)NC(=O)[C@@H](NC(=O)[C@@H]1CCCN1C(=O)[C@@H]1CCCN1C(=O)CNC(=O)[C@@H]1CCC(=O)N1)[C@@H](C)CC)[C@@H](C)CC)[C@@H](C)CC)[C@@H](C)CC)[C@@H](C)O)C(=O)O | 100% | – | 100% | 47 | – | – | 187 nM | 4 nM
CC[C@H](C)[C@H](NC(=O)[C@@H](NC(=O)[C@H](CC(=O)O)NC(=O)[C@H](CC(C)C)NC(=O)[C@H](CC(C)C)NC(=O)[C@H](CC(C)C)NC(=O)[C@H](CCCN=C(N)N)NC(=O)[C@H](CC(N)=O)NC(=O)[C@H](CC(N)=O)NC(=O)[C@H](C)NC(=O)[C@H](C)NC(=O)[C@H](CCC(N)=O)NC(=O)[C@H](CCC(N)=O)NC(=O)[C@H](CCCCN)NC(=O)[C@H](CCC(=O)O)NC(=O)[C@H](CCCCN)NC(=O)[C@H](CCC(=O)O)NC(=O)[C@H](CCC(N)=O)NC(=O)[C@H](CCCCN)NC(=O)[C@H](CCC(=O)O)NC(=O)[C@@H](NC(=O)[C@H](CCC(=O)O)NC(=O)[C@@H](NC(=O)[C@H](CCSC)NC(=O)[C@H](CCCCN)NC(=O)[C@H](CCCN=C(N)N)NC(=O)[C@H](CC(C)C)NC(=O)[C@H](CC(C)C)NC(=O)[C@H](Cc1ccccc1)NC(=O)[C@@H](NC(=O)[C@@H]1CCCN1C(=O)[C@H](CC(C)C)NC(=O)[C@H](CC(=O)O)NC(=O)[C@@H](NC(=O)[C@H](CO)NC(=O)[C@@H](NC(=O)[C@@H]1CCCN1C(=O)[C@@H]1CCCN1C(=O)CNC(=O)[C@@H]1CCC(=O)N1)[C@@H](C)CC)[C@@H](C)CC)[C@@H](C)CC)[C@@H](C)CC)[C@@H](C)CC)[C@@H](C)O)C(=O)O | 100% | – | 83% | 59 | – | – | 756 nM | 12.8 nM
CC[C@H](C)[C@H](NC(=O)[C@@H](NC(=O)[C@H](CC(=O)O)NC(=O)[C@H](CC(C)C)NC(=O)[C@H](CC(C)C)NC(=O)[C@H](CC(C)C)NC(=O)[C@H](CCCN=C(N)N)NC(=O)[C@H](CC(N)=O)NC(=O)[C@H](CC(N)=O)NC(=O)[C@H](C)NC(=O)[C@H](C)NC(=O)[C@H](CCC(N)=O)NC(=O)[C@H](CCC(N)=O)NC(=O)[C@H](CCCCN)NC(=O)[C@H](CCC(=O)O)NC(=O)[C@H](CCCCN)NC(=O)[C@H](CCC(=O)O)NC(=O)[C@H](CCC(N)=O)NC(=O)[C@H](CCCCN)NC(=O)[C@H](CCC(=O)O)NC(=O)[C@@H](NC(=O)[C@H](CCC(=O)O)NC(=O)[C@@H](NC(=O)[C@H](CCSC)NC(=O)[C@H](CCCCN)NC(=O)[C@H](CCCN=C(N)N)NC(=O)[C@H](CC(C)C)NC(=O)[C@H](CC(C)C)NC(=O)[C@H](Cc1ccc(O)cc1)NC(=O)[C@H](C)NC(=O)[C@@H]1CCCN1C(=O)[C@H](CC(C)C)NC(=O)[C@H](CC(=O)O)NC(=O)[C@@H](NC(=O)[C@H](CO)NC(=O)[C@@H](NC(=O)[C@@H]1CCCN1C(=O)[C@@H]1CCCN1C(=O)CNC(=O)[C@@H]1CCC(=O)N1)[C@@H](C)CC)[C@@H](C)CC)[C@@H](C)CC)[C@@H](C)CC)[C@@H](C)O)C(=O)O | 98% | – | 95% | 30 | – | – | 606 nM | 20.2 nM
CC[C@H](C)[C@H](NC(=O)[C@@H](NC(=O)[C@H](CC(=O)O)NC(=O)[C@H](CC(C)C)NC(=O)[C@H](CC(C)C)NC(=O)[C@H](CC(C)C)NC(=O)[C@H](CCCN=C(N)N)NC(=O)[C@H](CC(N)=O)NC(=O)[C@H](CC(N)=O)NC(=O)[C@H](C)NC(=O)[C@H](C)NC(=O)[C@H](CCC(N)=O)NC(=O)[C@H](CCC(N)=O)NC(=O)[C@H](CCCCN)NC(=O)[C@H](CCC(=O)O)NC(=O)[C@H](CCCCN)NC(=O)[C@H](CCC(=O)O)NC(=O)[C@H](CCC(N)=O)NC(=O)[C@H](CCCCN)NC(=O)[C@H](CCC(=O)O)NC(=O)[C@@H](NC(=O)[C@H](CCC(=O)O)NC(=O)[C@@H](NC(=O)[C@H](CCSC)NC(=O)[C@H](CCCCN)NC(=O)[C@H](CCCN=C(N)N)NC(=O)[C@H](CC(C)C)NC(=O)[C@H](CC(C)C)NC(=O)[C@H](Cc1ccc(O)cc1)NC(=O)[C@H](CC(N)=O)NC(=O)[C@@H]1CCCN1C(=O)[C@H](CC(C)C)NC(=O)[C@H](CC(=O)O)NC(=O)[C@@H](NC(=O)[C@H](CO)NC(=O)[C@@H](NC(=O)[C@@H]1CCCN1C(=O)[C@@H]1CCCN1C(=O)CNC(=O)[C@@H]1CCC(=O)N1)[C@@H](C)CC)[C@@H](C)CC)[C@@H](C)CC)[C@@H](C)CC)[C@@H](C)O)C(=O)O | 93% | – | 100% | 10 | – | – | 220 nM | 21.6 nM
